According to patent publication US12139488B2, “Pyrido[3,2-d]pyrimidine compounds uses thereof for treating a proliferative disease” (Universite de Montreal, priority 2021, dated 2024):

Test system: pERK in HCT-116 cells (KRAS G13D)
Test: Phospho-ERK inhibition (AlphaLISA SureFire Ultra p-ERK 1/2), HCT116
Format: cell-based, human
Description: All cancer cell lines (A375, A101D, A2058, RKO, HT29 SK-MEL 30, IPC298, HepG2, HCT-116, Lovo, SWV620, SW480, NCI-H358, NCI-H2122, Calu-6, NCIH2087, NCIH1755, NCIH1666 and Mewo) were obtained from ATCC and cultured in RPMI-1640 medium (Gibco) supplemented with 5% heat inactivated fetal bovine serum (FBS, Wisent) at 37° C. under 5% CO2. Cells were maintained in T175 flasks (Greiner). They were passaged by removing the culture medium, washing once in 10 mL of room temperature Phosphate Buffered Saline (PBS; Wisent) and incubating at 37° C. with 2 mL of 0.05% Trypsin (Thermo-Fisher). Trypsin was then inactivated by adding complete growth medium and the cells were then replated in a T175 culture dish at the appropriate dilution. All cell lines were routinely tested for mycoplasma contamination. Tissue type and mutational status of each cell line can be found in Table B.
AlphaLISA® SureFire® Ultra™ p-ERK 1/2 (Thr202/Tyr204) analysis was conducted on cells plated in 100 μL of complete RPMI-1640 growth medium in 96-well flat-bottomed transparent dishes (Costar) at a density indicated in Table C. Cells were maintained overnight at 37° C. under 5% CO2 before treatment with compounds' dilution series for one hour. The cell density in cells/cm^2 corresponds to cell number divided by the area of one well of a 96-well plate ([…]).
In a dilution series 100 μL/well of test substance dilution prepared in complete RPMI-1640 growth media was added to the cells. The dilution series is selected so that ten concentrations cover a range from 10 μM to 0.33 nM. If necessary the initial concentration of 10 μM is increased to 100 μM or lowered to 1 μM (as in the case of A375 and H1666 cells, which are generally more sensitive to the compounds) and further dilution is carried out accordingly. The final concentration of DMSO in the assay is set at 0.5%.
After treatment, media was removed and cells were lysed in 50 μL of 1× AlphaScreen Ultra Lysis Buffer (Perkin Elmer). The AlphaLISA® SureFire® Ultra™ p-ERK 1/2 (Thr202/Tyr2O4) (PerkinElmer) reactions were performed with 5 μL of cell lysate according to the manufacturer's specifications in 384-well proxyplates (Perkin Elmer) followed by overnight incubation of the reactions at room temperature in a humidified chamber. After completion of the reactions, the signals were recorded on an EnVision plate reader (Perkin Elmer) using built in AlphaLISA® settings.
The effect of each compound dilution on the pERK signal was expressed in % inhibition and calculated as follows. An internal 100% inhibition control ([…] trametinib, cat #HY-10999; MedChem Express; CAS #871700-17-3) was included in each plate and used as a measure of pERK background. First, the value obtained for trametinib was subtracted from each data point. The average of DMSO (vehicle) controls (set as 0% inhibition) was established and used to calculate % inhibition: % inhibition=100*(1-((pERK signalcompound)/(pERK signalDMSO)))
The ability of each compound to inhibit pERK signal was expressed as an IC50 value obtained by plotting the inhibition values for each data point of a dilution series and fitting the obtained curves using a log(agonist) versus response-variable slope (four parameters) function using GraphPadPrism (V7.0) or Dotmatics Screening Ultra platform.
When present, paradoxical pERK induction is inferred from the negative % inhibition values observed in the pERK IC50 curves of a compound.

[1] = HCT116 cells, class symbol before the bracket

SMILES	IC50 (HCT116 cells, class symbol) [nM]	other results
COc1cccc2c1ncn2-c1ccc2ncnc(Nc3c(F)ccc(NS(=O)(=O)c4cccc(Cl)c4Cl)c3F)c2n1 [Ex 449]	< 500	–
O=S(=O)(Nc1ccc(F)c(Nc2ncnc3ccc(-n4cc(S(=O)(=O)N5CC6COCC6C5)c5ccccc54)nc23)c1F)c1cccc(Cl)c1Cl (stereo not drawn) [Ex 451]	< 500	–
CC(C)(O)CCNS(=O)(=O)c1cn(-c2ccc3ncnc(Nc4c(F)ccc(NS(=O)(=O)c5cccc(Cl)c5Cl)c4F)c3n2)c2ccccc12 [Ex 453]	< 500	–
O=S(=O)(Nc1ccc(F)c(Nc2ncnc3ccc(-n4cc(S(=O)(=O)N5CC(O)C5)c5ccccc54)nc23)c1F)c1cccc(Cl)c1Cl [Ex 455]	< 500	–
CC1(O)CCN(S(=O)(=O)c2cn(-c3ccc4ncnc(Nc5c(F)ccc(NS(=O)(=O)c6cccc(Cl)c6Cl)c5F)c4n3)c3ccccc23)CC1 [Ex 458]	< 500	–
C[C@@H]1CN(C)C[C@H](C)N1S(=O)(=O)c1cn(-c2ccc3ncnc(Nc4c(F)ccc(NS(=O)(=O)c5cccc(Cl)c5Cl)c4F)c3n2)c2ccccc12 [Ex 459]	< 500	–
O=S(=O)(Nc1ccc(F)c(Nc2ncnc3ccc(-n4cnc5c(Cl)cccc54)nc23)c1F)c1cccc(Cl)c1Cl [Ex 462]	< 500	–
O=S(=O)(Nc1ccc(F)c(Nc2ncnc3ccc(-n4cnc5c4CCCC5)nc23)c1F)c1cccc(Cl)c1Cl [Ex 463]	500 to 1000	–
CC(=O)c1cn(-c2ccc3ncnc(Nc4c(F)ccc(NS(=O)(=O)c5cccc(Cl)c5Cl)c4F)c3n2)c2ccccc12 [Ex 464]	1000 to 10000	–
CCC(=O)c1cn(-c2ccc3ncnc(Nc4c(F)ccc(NS(=O)(=O)c5cccc(Cl)c5Cl)c4F)c3n2)c2ccccc12 [Ex 471]	1000 to 10000	–
O=S(=O)(Nc1ccc(F)c(Nc2ncnc3ccc(-n4cnc5c(CN6CC(F)C6)cccc54)nc23)c1F)c1ccccc1Cl [Example 227]	–	HCT116 pERK Ymin % (HCT116 cells, Ymin in brackets): −1.9%; IC50 [1]: 500 to 1000 nM
CC(c1cccc2c1ncn2-c1ccc2ncnc(Nc3c(F)ccc(NS(=O)(=O)c4ccccc4Cl)c3F)c2n1)N1CCOCC1 (stereo not drawn) [Example 237]	–	HCT116 pERK Ymin % (HCT116 cells, Ymin in brackets): 2.8%; IC50 [1]: 500 to 1000 nM
Cc1c(Cl)cccc1S(=O)(=O)Nc1cccc(Nc2ncnc3ccc(-n4nc(C(=O)N5CCOCC5)c5ccccc54)nc23)c1F [Example 241]	–	IC50 (HCT116 cells, Table 5): 1000 to 10000 nM; HCT116 pERK Ymin % (lowest value of the curve, HCT116, Table 5): −0.9%
CCCNc1cccc2c1ncn2-c1ccc2ncnc(Nc3c(F)ccc(NS(=O)(=O)c4cccc(Cl)c4Cl)c3F)c2n1 [Example 242]	–	HCT116 pERK Ymin % (HCT116 cells, Ymin in brackets): −7.4%; IC50 [1]: 1000 to 10000 nM
Cc1c(F)cccc1S(=O)(=O)Nc1ccc(F)c(Nc2ncnc3ccc(-n4cnc5c(C#N)cccc54)nc23)c1F [Example 329]	1000 to 10000	–
Cc1c(F)cccc1S(=O)(=O)Nc1ccc(F)c(Nc2ncnc3ccc(-n4ccc(C(=O)N(C)Cc5ccncc5)n4)nc23)c1F [Example 334]	< 500	–
Cc1c(F)cccc1S(=O)(=O)Nc1ccc(F)c(Nc2ncnc3ccc(-n4ncc5c4CN(CCO)CC5)nc23)c1F [Example 339]	< 500	–
Cc1c(F)cccc1S(=O)(=O)Nc1ccc(F)c(Nc2ncnc3ccc(-n4cc5c(n4)CCCN5CCO)nc23)c1F [Example 340]	< 500	–
Cc1c(F)cccc1S(=O)(=O)Nc1ccc(F)c(Nc2ncnc3ccc(-n4cnc(CCC#N)c4)nc23)c1F [Example 347]	< 500	–
Nc1nccc2c1ncn2-c1ccc2ncnc(Nc3c(F)ccc(NS(=O)(=O)c4cccc(Cl)c4Cl)c3F)c2n1 [Example 348]	< 500	–
Cc1c(F)cccc1S(=O)(=O)Nc1ccc(F)c(Nc2ncnc3ccc(-n4cnc5c(NCCO)cccc54)nc23)c1F [Example 350]	< 500	–
Cc1c(F)cccc1S(=O)(=O)Nc1ccc(F)c(Nc2ncnc3ccc(-n4cnc5c(N(CCO)CCO)cccc54)nc23)c1F [Example 351]	< 500	–
Cc1c(F)cccc1S(=O)(=O)Nc1ccc(F)c(Nc2ncnc3ccc(-n4cc5c(n4)CCCN5C)nc23)c1F [Example 356]	< 500	–
